{
  "source": "patent US6610750B1",
  "about": "“Treatment of osteoarthritis” (Laboratoires Negma, priority 2000, dated 2003)",
  "key": {"[1]": {"system": "IL-1 and other cytokines (IL-6 and TNF)", "details": "several studies in vitro and with animal models of osteoarthritis; cited from earlier work"}, "osteoarthritis": {"system": "osteoarthritis", "details": "after the start of the treatment; cited from earlier work"}, "solubility of diacerein": {"experiment": "solubility of diacerein", "type": "physicochemical"}, "[2]": {"system": "prostaglandin biosynthesis", "details": "cited from earlier work"}, "[3]": {"system": "patients with severe to moderate hip osteoarthritis", "experiment": "three-year, randomized, double-blind, placebo-controlled study of radiological progression of hip osteoarthritis", "type": "in vivo, human", "source_text": "In order to further explore the potential usefulness of diacerein in the treatment of osteoarthritis, and to closely monitor the relevance of the effects of the treatment by using an accurate radiographic technique, the inventors carried out a 3-year, randomized, double-blind and placebo-controlled multicenter clinical trial in 507 patients with hip osteoarthritis. The unexpected result of the study was that diacerein has a beneficial effect as a structure-modifying treatment for osteoarthritis, as evidenced radiographically by a reduction of the destructive progression of hip osteoarthritis. The results of this study are reported in Dougados M., Nguyen M., Berdah L., Lequesne M., Mazières B., Vignon E. 1999; “Evaluation of the structural (radiological) effect of diacerein in osteoarthritis of the hip: a 3-year placebo controlled study”, Osteoarthritis and Cart 7, Suppl. A: 123, and are by reference thereto incorporated herein in their entirety.\nIn a three-year, randomized, double-blind, placebo-controlled study, 507 patients with severe to moderate hip osteoarthritis were assigned to receive either diacerein, 50 mg twice daily, or an identical placebo. The primary criterion of radiological progression of osteoarthritis was defined by a reduction in the joint space width or at least 0.5 mm during the study. The annual joint space narrowing rate (mm/year) was also determined in the patients who completed the treatment.\nA total of 482 patients who had at least two radiographs were evaluated. Baseline characteristics of the 241 patients in each group were similar. In the placebo group, 62.7% of the patients had radiological progression, compared to 53.9% in the diacerein group (log-rank test: p=0.037). Treatment was followed for three years by 269 patients, among whom 55.1% in the placebo group and 41.2% in the diacerein group had radiological progression (log-rank test: p=0.007)."}},
  "data": [
    {"compound": "CC(=O)Oc1cccc2c1C(=O)c1c(OC(C)=O)cc(C(=O)O)cc1C2=O", "note": "[diacerein, diacetylrhein]", "values": [
      {"measurement": "inhibition of IL-1 and other cytokines (IL-6 and TNF)", "setting": "[1]", "result": "inhibit"},
      {"measurement": "time of onset of the effect", "setting": "osteoarthritis", "result": "≥ 4", "unit": "weeks"},
      {"measurement": "solubility in alcohol", "setting": "solubility of diacerein; alcohol", "result": "virtually insoluble"},
      {"measurement": "solubility in water", "setting": "solubility of diacerein; water", "result": "virtually insoluble"},
      {"measurement": "inhibitory effect on the phospholiphase, cyclo-oxygenase or lipo-oxygenase pathways (prostaglandin biosynthesis)", "setting": "[2]", "result": "no inhibitory effect"},
      {"measurement": "annual joint space narrowing rate", "setting": "[3]; 269 patients who completed three years, diacerein 50 mg twice daily, placebo 0.23±0.23, p=0.042", "result": "0.18±0.25", "unit": "mm/year"},
      {"measurement": "patients with radiological progression (reduction in joint space width of at least 0.5 mm)", "setting": "[3]; 269 patients who followed treatment for three years, diacerein 50 mg twice daily, placebo 55.1%, log-rank p=0.007", "result": 41.2, "unit": "%"},
      {"measurement": "patients with radiological progression (reduction in joint space width of at least 0.5 mm)", "setting": "[3]; 482 patients with at least two radiographs, 241 per group, diacerein 50 mg twice daily, placebo 62.7%, log-rank p=0.037", "result": 53.9, "unit": "%"},
      {"measurement": "structure-modifying effect as compared to placebo", "setting": "[3]; over the three-year period", "result": "statistically significant structure-modifying effect"}
    ]}
  ]
}
